According to ChEMBL document CHEMBL3244272, “Folate antagonists. 15. 2,3-Diamino-6-(2-naphthylsulfonyl)quinazoline and related 2,4-diamino-6-[(phenyl and naphthyl)sulfinyl and sulfonyl]quinazolines, a potent new class of antimetabolites with phenomenal antimalarial activity” (J Med Chem, 1979):
The source made the active and inactive calls. The calls are words filed in the database; no cut-off is given here.

Columns and labels:
[1] = system: Plasmodium gallinaceum; experiment: Antimalarial activity against cycloguanil-resistant Plasmodium gallinaceum infected in mouse assessed as dose required to suppress parasitemia by 90% compound treated through diet for 6 days relative to parent strain; assay type: functional
[2] = system: Plasmodium falciparum; experiment: Antimalarial activity against chloroquine-sensitive, pyrimethamine-resistant Plasmodium falciparum Malayan Camp CH/Q infected in Aotus monkey assessed as dose required to >50% cures compound treated for 7 days; assay type: functional
[3] = system: Plasmodium falciparum; experiment: Antimalarial activity against chloroquine-resistant, pyrimethamine-sensitive Plasmodium falciparum Vietnam Oak Knoll in Aotus monkey assessed as dose required to >50% cures compound treated for 7 days; assay type: functional
[4] = system: Gallus gallus; experiment: Toxicity in trophozoite-induced Plasmodium gallinaceum infected in chick assessed as death at 80 mg/kg, sc single dose measured within 48 hrs; assay type: organism-based; set-up: dose 80 mg/kg, route subcutaneous; conditions: chicken, in vivo
[5] = system: Plasmodium berghei; experiment: Antimalarial activity against trophozoite-induced Plasmodium berghei infected in sc dosed mouse assessed as minimum curative dose; assay type: functional
[6] = system: Plasmodium berghei; experiment: Antimalarial activity against trophozoite-induced Plasmodium berghei infected in mouse assessed as change in mean survival time at 2.5 mg/kg, sc single dose after 72 hrs of infection; assay type: functional; conditions: route subcutaneous
[7] = system: Plasmodium berghei; experiment: Antimalarial activity against trophozoite-induced Plasmodium berghei infected in mouse assessed as change in mean survival time at 1.25 mg/kg, sc single dose after 72 hrs of infection; assay type: functional; conditions: route subcutaneous
[8] = system: Plasmodium gallinaceum; experiment: Antimalarial activity against trophozoite-induced Plasmodium gallinaceum infected in chick assessed as mean survival time at 10 mg/kg, sc single dose (reference value: 4 days); assay type: functional; conditions: route subcutaneous
[9] = system: Plasmodium gallinaceum; experiment: Antimalarial activity against trophozoite-induced Plasmodium gallinaceum infected in chick assessed as mean survival time at 5 mg/kg, sc single dose (reference value: 4 days); assay type: functional; conditions: route subcutaneous
[10] = system: Plasmodium gallinaceum; experiment: Antimalarial activity against trophozoite-induced Plasmodium gallinaceum infected in chick assessed as mean survival time at 2.5 mg/kg, sc single dose (reference value: 4 days); assay type: functional; conditions: route subcutaneous
[11] = system: Plasmodium gallinaceum; experiment: Antimalarial activity against trophozoite-induced Plasmodium gallinaceum infected in chick assessed as mean survival time at 1.25 mg/kg, sc single dose (reference value: 4 days); assay type: functional; conditions: route subcutaneous
[12] = system: Plasmodium gallinaceum; experiment: Antimalarial activity against trophozoite-induced Plasmodium gallinaceum infected in chick assessed as mean survival time at 0.63 mg/kg, sc single dose (reference value: 4 days); assay type: functional; conditions: route subcutaneous
[13] = system: Plasmodium gallinaceum; experiment: Antimalarial activity against trophozoite-induced Plasmodium gallinaceum infected in chick assessed as cured at 2.5 mg/kg, sc single dose; assay type: functional, organism-based; set-up: dose 2.5 mg/kg
[14] = system: Plasmodium gallinaceum; experiment: Antimalarial activity against trophozoite-induced Plasmodium gallinaceum infected in chick assessed as cured at 1.25 mg/kg, sc single dose; assay type: functional, organism-based; set-up: dose 1.25 mg/kg
[15] = system: Plasmodium gallinaceum; experiment: Antimalarial activity against trophozoite-induced Plasmodium gallinaceum infected in chick assessed as cured at 0.63 mg/kg, sc single dose; assay type: functional, organism-based; set-up: dose 0.63 mg/kg
[16] = system: Gallus gallus; experiment: Toxicity in trophozoite-induced Plasmodium gallinaceum infected in chick assessed as death at 160 mg/kg, sc single dose measured within 48 hrs; assay type: organism-based; set-up: dose 160 mg/kg, route subcutaneous; conditions: chicken, in vivo
[17] = system: Gallus gallus; experiment: Toxicity in trophozoite-induced Plasmodium gallinaceum infected in chick assessed as death at 40 mg/kg, sc single dose measured within 48 hrs; assay type: organism-based; set-up: dose 40 mg/kg, route subcutaneous; conditions: chicken, in vivo
[18] = system: Gallus gallus; experiment: Toxicity in trophozoite-induced Plasmodium gallinaceum infected in chick assessed as death at 20 mg/kg, sc single dose measured within 48 hrs; assay type: organism-based; set-up: dose 20 mg/kg, route subcutaneous; conditions: chicken, in vivo
[19] = system: Gallus gallus; experiment: Toxicity in trophozoite-induced Plasmodium gallinaceum infected in chick assessed as death at 10 mg/kg, sc single dose measured within 48 hrs; assay type: organism-based; set-up: dose 10 mg/kg, route subcutaneous; conditions: chicken, in vivo
[20] = system: Gallus gallus; experiment: Toxicity in trophozoite-induced Plasmodium gallinaceum infected in chick assessed as death at 5 mg/kg, sc single dose measured within 48 hrs; assay type: organism-based; set-up: dose 5 mg/kg, route subcutaneous; conditions: chicken, in vivo
[21] = system: Gallus gallus; experiment: Toxicity in trophozoite-induced Plasmodium gallinaceum infected in chick assessed as death at 2.5 mg/kg, sc single dose measured within 48 hrs; assay type: organism-based; set-up: dose 2.5 mg/kg, route subcutaneous; conditions: chicken, in vivo
[22] = system: Gallus gallus; experiment: Toxicity in trophozoite-induced Plasmodium gallinaceum infected in chick assessed as death at 1.25 mg/kg, sc single dose measured within 48 hrs; assay type: organism-based; set-up: dose 1.25 mg/kg, route subcutaneous; conditions: chicken, in vivo
[23] = system: Gallus gallus; experiment: Toxicity in trophozoite-induced Plasmodium gallinaceum infected in chick assessed as death at 0.63 mg/kg, sc single dose measured within 48 hrs; assay type: organism-based; set-up: dose 0.63 mg/kg, route subcutaneous; conditions: chicken, in vivo
[24] = system: Gallus gallus; experiment: Toxicity in trophozoite-induced Plasmodium gallinaceum infected in chick assessed as death at 320 mg/kg, sc single dose measured within 48 hrs; assay type: organism-based; set-up: dose 320 mg/kg, route subcutaneous; conditions: chicken, in vivo

SMILES: Nc1nc(N)c2cc(Sc3ccc(Cl)cc3)ccc2n1
- fold change (FC) [1]: 4
- Activity [2]: 5 mg/kg
- Activity [3]: 0.31 mg/kg

SMILES: Nc1nc(N)c2cc(S(=O)(=O)c3ccc(Cl)cc3)ccc2n1
- Activity [4]: Toxic
- MCD [5]: 40 mg/kg
- MST [6]: 12.2 days
- MST [7]: 7.7 days
- MST [8]: 20 days
- MST [9]: 16 days
- MST [10]: 15 days
- MST [11]: 7.4 days
- MST [12]: 4 days
- Activity [13]: Active
- Activity [14]: Active
- Activity [15]: Active
- Activity [16]: Toxic
- Activity [17]: Toxic
- Activity [18]: Toxic
- Activity [19]: Toxic
- Activity [20]: Toxic
- Activity [21]: Toxic
- Activity [22]: Toxic
- Activity [23]: Toxic
- Activity [24]: Toxic
